Data published in US10188648B2, “Solid state forms of selexipag” (TEVA PHARMACEUTICALS INTERNATIONAL GMBH, priority 2015, dated 2019).

Assay: solubility in aqueous medium at pH=6.7
Type: physicochemical

## CC(C)N(CCCCOCC(=O)NS(C)(=O)=O)c1cnc(-c2ccccc2)c(-c2ccccc2)n1 [Form IV of Selexipag, 2-{4-[(5,6-diphenylpyrazin-2-yl)(isopropyl)amino]butoxy}-N-(methylsulfonyl)acetamide]
Comparison with Form I
  solubility in aqueous medium in comparison with Form I of U.S. Pat. No. 8,791,122: enhanced solubility

## CC(C)N(CCCCOCC(=O)NS(C)(=O)=O)c1cnc(-c2ccccc2)c(-c2ccccc2)n1 [Selexipag Form I, 2-{4-[(5,6-diphenylpyrazin-2-yl)(isopropyl)amino]butoxy}-N-(methylsulfonyl)acetamide]
  solubility in aqueous medium: practically insoluble
